Measurements taken from patent US20230339981A1, “KRAS G12D MODULATING COMPOUNDS” (priority 2022, published 2023).

Key:
GDP-loaded KRAS G12D = GDP-loaded KRAS G12D (Homo sapiens (Human), UniProt P01116, G12D); test: KRAS G12D (GDP) biochemical assay (TR-FRET probe displacement); type: binding; conditions: 2 hours
Experimental: Example A. KRAS G12D (GDP) Biochemical Assay
Compounds were tested for binding to GDP-loaded KRAS G12D in a 384-well assay format using a TR-FRET probe displacement assay in buffer consisting of 50 mM Hepes (pH 7.4), 150 mM NaCl, 5 mM MgCl2 and 0.005% Tween-20. […] Compounds were serially diluted (1:3) in DMSO. The LabCyte ECHO Acoustic dispenser system was used to pre-spot the assay plates (384-well Non-Binding Surface plates, Corning, Catalog #3824) with 50 nL of compound. The compounds were pre-incubated with 5 μL of 2× final enzyme concentration for 30 minutes before adding 5 μL of 2× final concentration of Eu-streptavidin and TR-FRET probe (10 μL final reaction volume). The plates were incubated at room temperature for 2 hours before measuring TR-FRET ratio on the Envision plate reader. IC50 values were defined as the compound concentration that causes a 50% decrease in TR-FRET ratio and were calculated using a sigmoidal dose-response model to generate curve fits.

GP2D (KRAS G12D) cells = test: 2D cell viability assay (CellTiter-Glo); type: cell-based; conditions: GP2d, 96 h, 4 days
Experimental: Example B. 2D Cell Viability Assay
Compounds were tested in a 384-well format for their ability to inhibit the viability of GP2D (KRAS G12D) cells in 2D assays. Compounds were serially diluted (1:3) in DMSO. The LabCyte ECHO Acoustic dispenser system was used to pre-spot assay plates with 200 nL of test molecule per well. 1000 cells/well (40 μL volume per well) in RPMI medium with 10% FBS, and Penicillin-Streptomycin-Glutamine were plated in pre-spotted 384-well plates (Greiner, Catalog #781076) on the BioTEK EL406 liquid dispenser with a 5 μL dispensing cassette (BioTek 7170011). The plates were incubated at 37° C., 5% CO2 for 4 days before addition of CellTiter-Glo (CTG) reagent and measurement of luminescence signal. EC50 values were defined as the compound concentration that causes a 50% decrease in luminescence signal and were calculated using a sigmoidal dose-response model to generate curve fits.

Chain of GDP-loaded KRAS G12D (P01116-2 other isoform, or with tags, fused parts or gaps G12D): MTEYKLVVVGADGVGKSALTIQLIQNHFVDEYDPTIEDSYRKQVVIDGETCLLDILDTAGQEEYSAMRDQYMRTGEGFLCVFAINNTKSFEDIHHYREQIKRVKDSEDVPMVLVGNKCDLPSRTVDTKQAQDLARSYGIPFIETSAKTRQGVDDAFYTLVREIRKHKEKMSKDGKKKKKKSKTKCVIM

Row | Compound | IC50 (GDP-loaded KRAS G12D) | EC50 (GP2D (KRAS G12D) cells)
1 | Fc1ccc2c(-c3nc4c5c(nc(OC[C@@]67CCCN6C[C@H](F)C7)nc5c3F)N3C[C@H]5CC[C@H](N5)[C@H]3CO4)cccc2c1 [Example 66, (5aS,6S,9R)-1-fluoro-2-(6-fluoronaphthalen-1-yl)-12-(((2R,7aS)-2-fluorotetrahydro-1H-pyrrolizin-7a(5H)-yl)methoxy)-5a,6,7,8,9,10-hexahydro-5H-4-oxa-3,10a,11,13,14-pentaaza-6,9-methanonaphtho[1,8-ab]heptalene] | 860 nM | > 1000 nM
2 | Fc1ccc2ccccc2c1-c1nc2c3c(nc(OC[C@@]45CCCN4C[C@H](F)C5)nc3c1F)N1C[C@H]3CC[C@H](N3)[C@H]1CO2 [Example 48, (5aS,6S,9R)-1-fluoro-2-(2-fluoronaphthalen-1-yl)-12-(((2R,7aS)-2-fluorotetrahydro-1H-pyrrolizin-7a(5H)-yl)methoxy)-5a,6,7,8,9,10-hexahydro-5H-4-oxa-3,10a,11,13,14-pentaaza-6,9-methanonaphtho[1,8-ab]heptalene] | 2200 nM | > 1000 nM
3 | C#Cc1c(F)ccc2cccc(-c3nc4c5c(nc(OC[C@@]67CCCN6[C@H](COc6cnnc(C(F)(F)F)c6)CC7)nc5c3F)N3C[C@H]5CC[C@H](N5)[C@H]3CCC4)c12 [Example 199, (6aR,7S,10R)-2-(8-ethynyl-7-fluoronaphthalen-1-yl)-1-fluoro-13-(((3S,7aS)-3-(((6-(trifluoromethyl)pyridazin-4-yl)oxy)methyl)tetrahydro-1H-pyrrolizin-7a(5H)-yl)methoxy)-5,6,6a,7,8,9,10,11-octahydro-4H-3,11a,12,14,15-pentaaza-7,10-methanocyclohepta[4,5]cycloocta[1,2,3-de]naphthalene] | 0.07 nM | 3.2 nM
4 | C#Cc1c(F)ccc2cc(O)cc(-c3nc4c5c(nc(OC[C@@]67CCCN6C[C@H](OC(C(F)(F)F)(C(F)(F)F)C(F)(F)F)C7)nc5c3F)N3C[C@H]5CC[C@H](N5)[C@H]3CC4)c12 [Example 129, 5-ethynyl-6-fluoro-4-((5aR,6S,9R)-1-fluoro-12-((trans-2-((1,1,1,3,3,3-hexafluoro-2-(trifluoromethyl)propan-2-yl)oxy)tetrahydro-1H-pyrrolizin-7a(5H)-yl)methoxy)-4,5,5a,6,7,8,9,10-octahydro-3,10a,11,13,14-pentaaza-6,9-methanonaphtho[1,8-ab]heptalen-2-yl)naphthalen-2-ol] | 2.7 nM | 13.3 nM
5 | C#Cc1c(F)ccc2cccc(-c3nc4c5c(nc(OCC6(CN7CCC[Si](C)(C)CC7)CC6)nc5c3F)N3C[C@H]5CC[C@H](N5)[C@@H]3[C@@H](C)C4)c12 [Example 100, (5S,5aS,6S,9R)-12-((1-((4,4-dimethyl-1,4-azasilepan-1-yl)methyl)cyclopropyl)methoxy)-2-(8-ethynyl-7-fluoronanhthalen-1-yl)-1-fluoro-5-methyl-4,5,5a,6,7,8,9,10-octahydro-3,10a,11,13,14-pentaaza-6,9-methanonaphtho[1,8-ab]heptalene] | 31.8 nM | 373 nM
6 | C#Cc1c(F)ccc2cc(O)cc(-c3nc4c5c(nc(OCC6(CN7CCC(F)CC7)CC6)nc5c3F)N3C[C@H]5CC[C@H](N5)[C@H]3CO4)c12 [Example 32, 5-ethynyl-6-fluoro-4-((5aS,6S,9R)-1-fluoro-12-((1-((4-fluoropiperidin-1-yl)methyl)cyclopropyl)methoxy)-5a,6,7,8,9,10-hexahydro-5H-4-oxa-3,10a,11,13,14-pentaaza-6,9-methanonaphtho[1,8-ab]heptalen-2-yl)naphthalen-2-ol] | 0.2 nM | 2 nM
7 | C#Cc1c(F)ccc2cccc(-c3nc4c5c(nc(OC[C@@]67CCCN6[C@H](COc6cc(C(F)(F)F)ncn6)CC7)nc5c3F)N3C[C@H]5CC[C@H](N5)[C@H]3CC4)c12 [Example 152, (5aR, 6S, 9R)-2-(8-ethynyl-7-fluoronaphthalen-1-yl)-1-fluoro-12-(((3S,7aS)-3-(((6-(trifluoromethyl)pyrimidin-4-yl)oxy)methyl)tetrahydro-1H-pyrrolizin-7a(5H)-yl)methoxy)-4,5,5a,6,7,8,9,10-octahydro-3,10a,11,13,14-pentaaza-6,9-methanonaphtho[1,8-ab]heptalene] | 0.1 nM | 5.4 nM
8 | Fc1c(-c2cccc3ccccc23)nc2c3c(nc(OC[C@@]45CCCN4C[C@H](F)C5)nc13)N1C[C@H]3CC[C@H](N3)[C@H]1CO2 [Example 46, (5aS,6S,9R)-1-fluoro-12-(((2R,7aS)-2-fluorotetrahydro-1H-pyrrolizin-7a(5H)-yl)methoxy)-2-(naphthalen-1-yl)-5a,6,7,8,9,10-hexahydro-5H-4-oxa-3,10a,11,13,14-pentaaza-6,9-methanonaphtho[1,8-ab]heptalene] | 910 nM | > 1000 nM
9 | C#Cc1c(F)ccc2cccc(-c3cc4c5c(nc(OC[C@@]67CCCN6C[C@H](F)C7)nc5c3F)N3C[C@H]5CC[C@H](N5)[C@H]3CCC4)c12 [Example 192, (1S,4R,15aR)-11-(8-ethynyl-7-fluoronaphthalen-1-yl)-10-fluoro-8-(((2R,7aS)-2-fluorotetrahydro-1H-pyrrolizin-7a(5H)-yl)methoxy)-2,3,4,5,13,14,15,15a-octahydro-1H-1,4-epiminoazepino[1′,2′:1,8]azocino[2,3,4-de]quinazoline] | 0.1 nM | 4.5 nM
10 | C#Cc1c(F)ccc2cc(O)cc(-c3nc4c5c(nc(OCC6(CN7CCC(F)CC7)CC6)nc5c3F)N3C[C@H]5CC[C@H](N5)[C@H]3CC4)c12 [Example 68, 5-ethynyl-6-fluoro-4-((5aR,6S,9R)-1-fluoro-12-((1-((4-fluoropiperidin-1-yl)methyl)cyclopropyl)methoxy)-4,5,5a,6,7,8,9,10-octahydro-3,10a,11,13,14-pentaaza-6,9-methanonaphtho[1,8-ab]heptalen-2-yl)naphthalen-2-ol] | 0.05 nM | 0.6 nM
11 | C#Cc1c(F)ccc2cccc(-c3nc4c5c(nc(OC[C@]67CCCN6CC(OC(C(F)(F)F)(C(F)(F)F)C(F)(F)F)C7)nc5c3F)N3C[C@H]5CC[C@H](N5)[C@H]3CC4)c12 (stereo partly drawn) [Example 114, (5aR,6S,9R)-2-(8-ethynyl-7-fluoronaphthalen-1-yl)-1-fluoro-12-((trans-2-((1,1,1,3,3,3-hexafluoro-2-(trifluoromethyl)propan-2-yl)oxy)tetrahydro-1H-pyrrolizin-7a(5H)-yl)methoxy)-4,5,5a,6,7,8,9,1O-octahydro-3,10a,11,13,14-pentaaza-6,9-methanonaphtho[1,8-ab]heptalene] | 125 nM | 1000 nM
12 | C#Cc1c(F)ccc2cccc(-c3nc4c5c(nc(OCC6(CN7CC[C@H](OC(F)(F)F)C7)CC6)nc5c3F)N3C[C@H]5CC[C@H](N5)[C@H]3CCC4)c12 [Example 126, (6aR,7S,10R)-2-(8-ethynyl-7-fluoronaphthalen-1-yl)-1-fluoro-13-((1-(((S)-3-(trifluoromethoxy)pyrrolidin-1-yl)methyl)cyclopropyl)methoxy)-5,6,6a,7,8,9,10,11-octahydro-4H-3,11a,12,14,15-pentaaza-7,10-methanocyclohepta[4,5]cycloocta[1,2,3-de]naphthalene] | 2 nM | 94.4 nM
13 | C#Cc1c(F)ccc2cccc(-c3nc4c5c(nc(OC[C@@]67CCCN6C[C@H](F)C7)nc5c3F)N3C[C@H]5CC[C@H](N5)[C@H]3CC4(F)F)c12 [Example 98, (5aR,6S,9R)-2-(8-ethynyl-7-fluoronaphthalen-1-yl)-1,4,4-trifluoro-12-(((2R,7aS)-2-fluorotetrahydro-1H-pyrrolizin-7a(5H)-yl)methoxy)-4,5,5a,6,7,8,9,10-octahydro-3,10a,11,13,14-pentaaza-6,9-methanonaphtho[1,8-ab]heptalene] | 12.6 nM | 124 nM
14 | C#Cc1c(F)ccc2cccc(-c3nc4c5c(nc(OCC67CC8(CC8)CN6CC6(CC6)C7)nc5c3F)N3C[C@H]5CC[C@H](N5)[C@@H]3[C@@H](C)C4)c12 [Example 158] | 12.5 nM | 100 nM
15 | C#Cc1c(F)ccc2cc(O)cc(-c3nc4c5c(nc(OCC6(CN7CCOCC7)CC6)nc5c3F)N3C[C@H]5CC[C@H](N5)[C@H]3CO4)c12 [Example 28, 5-ethynyl-6-fluoro-4-((5aS,6S,9R)-1-fluoro-12-((1-(morpholinomethyl)cyclopropyl)methoxy)-5a,6,7,8,9,10-hexahydro-5H-4-oxa-3,10a,11,13,14-pentaaza-6,9-methanonaphtho[1,8-ab]heptalen-2-yl)naphthalen-2-ol] | 0.6 nM | 7 nM
